The text below walks through data of patent US5814631A, “Quinazoline derivatives and applications thereof” (Suntory Limited, priority 1995, dated 1998).

The target of the assay is T1, human heart chymase (Homo sapiens, UniProt P23946).
T1 sequence (P23946 22-247): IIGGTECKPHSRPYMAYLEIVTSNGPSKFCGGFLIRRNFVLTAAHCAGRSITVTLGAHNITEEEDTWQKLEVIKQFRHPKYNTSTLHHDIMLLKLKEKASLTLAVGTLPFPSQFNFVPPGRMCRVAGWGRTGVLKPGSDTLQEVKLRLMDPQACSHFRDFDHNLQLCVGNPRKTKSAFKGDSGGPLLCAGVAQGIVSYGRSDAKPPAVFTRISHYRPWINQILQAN
Description: biochemical. Particulars: Chymase inhibitive activity (IC50), Ang I substrate, 37° C., 30 min, pH 7.5.
Description: That is, to 10 μl of a 20 mM trisphosphate buffer (pH 7.5) containing 2MKCl were added 10 μl of purified chymase and 5 μl of a dimethylsulfoxide (hereinafter referred to as DMSO) solution of the test sample. The mixture was preincubated at 37° C. for 10 minutes, then 25 μl of a 1 mM Ang I solution was added and the mixture preincubated at 37° C. for 30 minutes. Next, 50 μl of 30% acetic acid was added to stop the enzymatic reaction. At the same time, a blind test was performed by adding, instead of the test sample solution, 5 μl of DMSO and performing the same reaction.
The reacted solution was subjected to high performance liquid chromatography using Develosil ODS-5 (made by Nomura Kagaku, .phi.4.6 mm×150 mm) and developed at a flow rate of 2.0 ml/min in 0.05% TFA by a straight concentration gradient raising the acetonitrile from 0% to 60% over 10 minutes. This was monitored by the absorbance at 210 nm and the peaks identified by comparison with standard samples of Ang I and Ang II. The peak areas were measured by an integrating meter to quantitatively analyze the Ang I and Ang II and calculate the chymase activity.

On to `O=C(Cn1c(=O)n(S(=O)(=O)c2ccc(Cl)cc2)c(=O)c2ccc(Cl)cc21)Nc1ccccc1` [Example 38, [7-chloro-3-(4-chlorobenzenesulfonyl)-2,4(1H,3H)-quinazolinedion-1-yl]-N-phenylacetamide], for which the IC50 turned out to be 63 nM. In other words, the double-digit nanomolar range.
In the case of `O=C(Cn1c(=O)n(S(=O)(=O)c2ccc(Cl)cc2)c(=O)c2ccc(Cl)cc21)Nc1ccc(O)cc1` [Example 39, [7-chloro-3-(4-chlorobenzenesulfonyl)-2,4(1H,3H)-quinazolinedion-1-yl]-N-(4-hydroxyphenyl)acetamide] it was 65 nM; in that of `O=C(Cn1c(=O)n(S(=O)(=O)c2ccc(Cl)cc2)c(=O)c2ccc(Cl)cc21)Nc1cccc(O)c1` [Example 40, [7-chloro-3-(4-chlorobenzenesulfonyl)-2,4(1H,3H)-quinazolinedion-1-yl]-N-(3-hydroxyphenyl)acetamide], 110 nM; in that of `O=C(Cn1c(=O)n(S(=O)(=O)c2ccc(Cl)cc2)c(=O)c2ccc(Cl)cc21)Nc1ccccc1O` [Example 41, [7-chloro-3-(4-chlorobenzenesulfonyl)-2,4(1H,3H)-quinazolinedion-1-yl]-N-(2-hydroxyphenyl)acetamide], 310 nM.
Under `O=C(Cn1c(=O)n(S(=O)(=O)c2ccc(Cl)cc2)c(=O)c2ccc(Cl)cc21)Nc1ccc(C(=O)O)cc1` [Example 43, [7-chloro-3-(4-chlorobenzenesulfonyl)-2,4(1H,3H)-quinazolinedion-1-yl]-N-(4-carboxyphenyl)-acetamide] stands 420 nM; under `O=C(Cn1c(=O)n(S(=O)(=O)c2ccc(Cl)cc2)c(=O)c2ccc(Cl)cc21)Nc1ccc(CN2CCOCC2)cc1` [Example 44, [7-chloro-3-(4-chlorobenzenesulfonyl)-2,4(1H,3H)-quinazolinedion-1-yl]-N-(4-morpholinomethylphenyl)acetamide], 560 nM; under `NCc1ccc(NC(=O)Cn2c(=O)n(S(=O)(=O)c3ccc(Cl)cc3)c(=O)c3ccc(Cl)cc32)cc1` [Example 46, [7-chloro-3-(4-chlorobenzenesulfonyl)-2,4(1H,3H)-quinazolinedion-1-yl]-N-(4-aminomethylphenyl)acetamide], 320 nM.
`N[C@@H](CC(=O)O)C(=O)NCc1ccc(NC(=O)Cn2c(=O)n(S(=O)(=O)c3ccc(Cl)cc3)c(=O)c3ccc(Cl)cc32)cc1` [Example 48, [7-chloro-3-(4-chlorobenzenesulfonyl)-2,4(1H,3H)-quinazolinedion-1-yl]-N-(4-α-L-aspartylaminomethylphenyl)acetamide] registered a concentration for half-maximal inhibition (IC50) of 500 nM.
In the case of `N[C@@H](CC(=O)NCc1ccc(NC(=O)Cn2c(=O)n(S(=O)(=O)c3ccc(Cl)cc3)c(=O)c3ccc(Cl)cc32)cc1)C(=O)O` [Example 50, [7-chloro-3-(4-chlorobenzenesulfonyl)-2,4(1H,3H)-quinazolinedion-1-yl]-N-(4-β-L-aspartylaminomethylphenyl)acetamide] it was 330 nM; in that of `N[C@@H](CC(=O)NCc1cccc(NC(=O)Cn2c(=O)n(S(=O)(=O)c3ccc(Cl)cc3)c(=O)c3ccc(Cl)cc32)c1)C(=O)O` [Example 52, [7-chloro-3-(4-chlorobenzenesulfonyl)-2,4(1H,3H)-quinazolinedion-1-yl]-N-(3-β-L-aspartylaminomethylphenyl)acetamide], 110 nM.
In the case of `O=C(Cn1c(=O)n(S(=O)(=O)c2ccc(Cl)cc2)c(=O)c2ccc(Cl)cc21)Nc1cccnc1` [Example 53, [7-chloro-3-(4-chlorobenzenesulfonyl)-2,4(1H,3H)-quinazolinedion-1-yl]-N-(3-pyridyl)acetamide] it was 50 nM; in that of `O=C(Cn1c(=O)n(S(=O)(=O)c2ccc(Cl)cc2)c(=O)c2ccc(Cl)cc21)Nc1ccncc1` [Example 54, [7-chloro-3-(4-chlorobenzenesulfonyl)-2,4(1H,3H)-quinazolinedion-1-yl]-N-(4-pyridyl)acetamide], 34 nM; in that of `O=C(Cn1c(=O)n(S(=O)(=O)c2ccc(Cl)cc2)c(=O)c2ccc(Cl)cc21)Nc1ccccn1` [Example 55, [7-chloro-3-(4-chlorobenzenesulfonyl)-2,4(1H,3H)-quinazolinedion-1-yl]-N-(2-pyridyl)acetamide], 72 nM.
`CC[n+]1cccc(NC(=O)Cn2c(=O)n(S(=O)(=O)c3ccc(Cl)cc3)c(=O)c3ccc(Cl)cc32)c1` [Example 56, 3-{[7-chloro-3-(4-chlorobenzenesulfonyl)-2,4(1H,3H)-quinazolinedion-1-yl]acetylamino}-N-ethylpyridinium iodide]: the IC50 was 31 nM.
Under `C[n+]1ccc(NC(=O)Cn2c(=O)n(S(=O)(=O)c3ccc(Cl)cc3)c(=O)c3ccc(Cl)cc32)cc1` [Example 58, 4-{[7-chloro-3-(4-chlorobenzenesulfonyl)-2,4(1H,3H)-quinazolinedion-1-yl]acetylamino}-N-methylpyridinium iodide] stands 130 nM; under `O=c1c2ccc(Cl)cc2n(Cc2ccccc2)c(=O)n1S(=O)(=O)c1ccc(Cl)cc1` [Example 59, 1-benzyl-7-chloro-3-(4-chlorobenzenesulfonyl)-2,4(1H,3H )-quinazolinedione], 370 nM; under `N#Cc1ccc(Cn2c(=O)n(S(=O)(=O)c3ccc(Cl)cc3)c(=O)c3ccc(Cl)cc32)cc1` [Example 60, 7-chloro-3-(4-chlorobenzenesulfonyl)-1-(4-cyanobenzyl)-2,4(1H,3H)-quinazolinedione], 340 nM.
Under `N#Cc1cccc(Cn2c(=O)n(S(=O)(=O)c3ccc(Cl)cc3)c(=O)c3ccc(Cl)cc32)c1` [Example 61, 7-chloro-3-(4-chlorobenzenesulfonyl)-1-(3-cyanobenzyl)-2,4(1H,3H)-quinazolinedione] stands 160 nM; under `O=C(O)c1cccc(Cn2c(=O)n(S(=O)(=O)c3ccc(Cl)cc3)c(=O)c3ccc(Cl)cc32)c1` [Example 66, 1-(3-carboxybenzyl)-7-chloro-3-(4-chlorobenzenesulfonyl)-2,4(1H,3H)-quinazolinedione], 240 nM; under `O=C(Nc1cccnc1)c1cccc(Cn2c(=O)n(S(=O)(=O)c3ccc(Cl)cc3)c(=O)c3ccc(Cl)cc32)c1` [Example 68, 7-chloro-3-(4-chlorobenzenesulfonyl)-1-(3-(3-pyridyl)aminocarbonyl-benzyl)-2,4(1H,3H)-quinazolinedione], 110 nM.
Regarding `O=C(O)CNC(=O)c1cccc(Cn2c(=O)n(S(=O)(=O)c3ccc(Cl)cc3)c(=O)c3ccc(Cl)cc32)c1` [Example 70, 3-(7-chloro-3-(4-chlorobenzenesulfonyl)-2,4(1H,3H)-quinazolinedion-1-yl)methylbenzoylglycine], 230 nM corresponded to half-maximal inhibition (IC50).
Under `O=C(O)CCC(=O)Nc1ccc(Cn2c(=O)n(S(=O)(=O)c3ccc(Cl)cc3)c(=O)c3ccc(Cl)cc32)cc1` [Example 73] stands 2300 nM.
For the compound `Nc1ccccc1Cn1c(=O)n(S(=O)(=O)c2ccc(Cl)cc2)c(=O)c2ccc(Cl)cc21` [Example 75, 1-(2-aminobenzyl)-7-chloro-3-(4-chlorobenzenesulfonyl)-2,4(1H,3H)-quinazolinedione], inhibition was half-maximal at 180 nM (IC50).
In the case of `O=C(Cn1c(=O)n(S(=O)(=O)c2ccc(Cl)cc2)c(=O)c2ccc(Cl)cc21)NCc1ccccc1` [Example 80, [7-chloro-3-(4-chlorobenzenesulfonyl)-2,4(1H,3H)-quinazolinedion-1-yl]-N-benzylacetamide], the IC50 was 140 nM.
Turning to `O=C(Cn1c(=O)n(S(=O)(=O)c2ccc(Cl)cc2)c(=O)c2ccc(Cl)cc21)NCc1ccncc1` [Example 81, [7-chloro-3-(4-chlorobenzenesulfonyl)-2,4 (1H,3H)-quinazolinedion-1-yl]-N-(4-picolyl)acetamide], the IC50 amounted to 220 nM.
In the case of `O=C(Cn1c(=O)n(S(=O)(=O)c2ccc(Cl)cc2)c(=O)c2ccc(Cl)cc21)Nc1ccc2[nH]ccc2c1` [Example 82, [7-chloro-3-(4-chlorobenzenesulfonyl)-2,4(1h,3H)-quinazolinedion-1-yl]-N-(5-indolyl)acetamide] it was 51 nM; in that of `CC(C)(C)OC(=O)C[n+]1cccc(NC(=O)Cn2c(=O)n(S(=O)(=O)c3ccc(Cl)cc3)c(=O)c3ccc(Cl)cc32)c1` [Example 83, 3-{[7-chloro-3-(4-chlorobenzenesulfonyl)-2,4(1H,3H)-quinazolinedion-1-yl]acetylamino}-(N-t-butoxycarbonylmethylpyridinium) bromide], 38 nM.
Under `O=C(O)C[n+]1cccc(NC(=O)Cn2c(=O)n(S(=O)(=O)c3ccc(Cl)cc3)c(=O)c3ccc(Cl)cc32)c1` [Example 84, 3-{[7-chloro-3-(4-chlorobenzenesulfonyl)-2,4(1H,3H)-quinazolinedion-1-yl]acetylamino}-N-carboxymethylpyridinium bromide] stands 43 nM; under `O=C(Cn1c(=O)n(S(=O)(=O)c2ccc(Cl)cc2)c(=O)c2ccc(Cl)cc21)Nc1ccncn1` [Example 85, [7-chloro-3-(4-chlorobenzenesulfonyl)-2,4(1H,3H)-quinazolinedion-1-yl]-N-(4-pyrimidinyl)acetamide], 190 nM.
Under `CC[n+]1cccc(NC(=O)Cn2c(=O)n(S(=O)(=O)c3ccc(OC)cc3)c(=O)c3ccc(Cl)cc32)c1` [Example 90] stands 130 nM.
The compound `O=C(Cn1c(=O)n(S(=O)(=O)c2ccc(Cl)cc2)c(=O)c2ccc(Cl)cc21)Nc1cccc2ncccc12` [Example 91, [7-chloro-3-(4-chlorobenzenesulfonyl)-2,4(1H,3H)-quinazolinedion-1-yl]-N-(5-quinolyl)acetamide] yielded an IC50 of 180 nM. This IC50 and that of the compound before are within 1.5-fold of each other.
On to `O=C(Cn1c(=O)n(S(=O)(=O)c2ccc(Cl)cc2)c(=O)c2ccc(Cl)cc21)Nc1ccc(N2CCNCC2)cc1` [Example 93, [7-chloro-3-(4-chlorobenzenesulfonyl)-2,4(1H,3H)-quinazolinedion-1-yl]-N-(4-piperazin-1-yl)acetamide], for which the half-maximal inhibitory concentration (IC50) worked out at 390 nM.

As usually defined, the IC50 is the concentration that inhibits the measured activity by half. The low end stands for higher potency, the high end for lower potency.
